Data published in ChEMBL document CHEMBL1152855, “Regioselective synthesis of dispiro[1H-indene-2,3'-pyrrolidine-2',3''-[3H]indole]-1,2''(1''H)-diones of potential anti-tumor properties” (2009).

Columns and labels:
Type in all cases: functional
SNB-19 = assay: Growth inhibition of human SNB19 cells at 10 uM after 48 hrs by sulforhodamine B assay; details: SNB-19, 48 h, values are per cent of control
Rattus norvegicus = assay: Antiinflammatory activity against carrageenan-induced paw edema in Wister albino rat assessed as inhibition of edema at 50 mg/kg, ip administered 1 hr prior to carrageenan challenge measured after 4 hrs relative to control; details: route intraperitoneal
U-251 = assay: Growth inhibition of human U251 cells at 10 uM after 48 hrs by sulforhodamine B assay; details: U-251, 48 h, values are per cent of control
OVCAR-4 = assay: Growth inhibition of human OVCAR4 cells at 10 uM after 48 hrs by sulforhodamine B assay; details: OVCAR-4, 48 h, values are per cent of control
CAKI-1 = assay: Growth inhibition of human Caki1 cells at 10 uM after 48 hrs by sulforhodamine B assay; details: CAKI-1, 48 h, values are per cent of control
SN12C = assay: Growth inhibition of human SN12C cells at 10 uM after 48 hrs by sulforhodamine B assay; details: values are per cent of control
SR = assay: Growth inhibition of human SR cells at 10 uM after 48 hrs by sulforhodamine B assay; details: values are per cent of control
K562 = assay: Growth inhibition of human K562 cells at 10 uM after 48 hrs by sulforhodamine B assay; details: K562, 48 h, values are per cent of control
NCI-H522 = assay: Growth inhibition of human NCI-H522 cells at 10 uM after 48 hrs by sulforhodamine B assay; details: NCI-H522, 48 h, values are per cent of control
T47D = assay: Growth inhibition of human T47D cells at 10 uM after 48 hrs by sulforhodamine B assay; details: values are per cent of control
SF-295 = assay: Growth inhibition of human SF295 cells at 10 uM after 48 hrs by sulforhodamine B assay; details: SF-295, 48 h, values are per cent of control
COLO 205 = assay: Growth inhibition of human COLO205 cells at 10 uM after 48 hrs by sulforhodamine B assay; details: COLO 205, 48 h, values are per cent of control
SW-620 = assay: Growth inhibition of human SW620 cells at 10 uM after 48 hrs by sulforhodamine B assay; details: SW-620, 48 h, values are per cent of control
SF-539 = assay: Growth inhibition of human SF539 cells at 10 uM after 48 hrs by sulforhodamine B assay; details: SF-539, 48 h, values are per cent of control
NCI/ADR-RES = assay: Growth inhibition of human NCI/ADR-RES cells at 10 uM after 48 hrs by sulforhodamine B assay; details: values are per cent of control
M14 = assay: Growth inhibition of human M14 cells at 10 uM after 48 hrs by sulforhodamine B assay; details: M14, 48 h, values are per cent of control
HL-60(TB) = assay: Growth inhibition of human HL-60(TB) cells at 10 uM after 48 hrs by sulforhodamine B assay; details: HL-60, 48 h, read-out: GI
ACHN = assay: Growth inhibition of human ACHN cells at 10 uM after 48 hrs by sulforhodamine B assay; details: values are per cent of control
KM12 = assay: Growth inhibition of human KM12 cells at 10 uM after 48 hrs by sulforhodamine B assay; details: KM12, 48 h, values are per cent of control
NCI-H460 = assay: Growth inhibition of human NCI-H460 cells at 10 uM after 48 hrs by sulforhodamine B assay; details: NCI-H460, 48 h, values are per cent of control
UO-31 = assay: Growth inhibition of human UO31 cells at 10 uM after 48 hrs by sulforhodamine B assay; details: UO-31, 48 h, values are per cent of control
HCT-15 = assay: Growth inhibition of human HCT15 cells at 10 uM after 48 hrs by sulforhodamine B assay; details: HCT-15, 48 h, values are per cent of control
SK-MEL-5 = assay: Growth inhibition of human SK-MEL-5 cells at 10 uM after 48 hrs by sulforhodamine B assay; details: SK-MEL-5, 48 h, values are per cent of control

SMILES	growth, % of control at 10 µM (SNB-19)	inhibition in vivo at 50 mg/kg (Rattus norvegicus)	growth, % of control at 10 µM (U-251)	growth, % of control at 10 µM (OVCAR-4)	growth, % of control at 10 µM (CAKI-1)	growth, % of control at 10 µM (SN12C)	growth, % of control at 10 µM (SR)	growth, % of control at 10 µM (K562)	growth, % of control at 10 µM (NCI-H522)	growth, % of control at 10 µM (T47D)	growth, % of control at 10 µM (SF-295)	growth, % of control at 10 µM (COLO 205)	growth, % of control at 10 µM (SW-620)	growth, % of control at 10 µM (SF-539)	growth, % of control at 10 µM (NCI/ADR-RES)	growth, % of control at 10 µM (M14)	growth, % of control at 10 µM (ACHN)	growth, % of control at 10 µM (KM12)	growth, % of control at 10 µM (NCI-H460)	growth, % of control at 10 µM (UO-31)	also measured
[3H]C([3H])([3H])N1C(=O)[C@@]2(c3ccccc31)N(C)C[C@@H](c1cccs1)[C@@]21Cc2ccccc2C1=O	96.2%	12.9%	102%	100%	106%	105%	72.5%	72.5%	94.9%	101%	60.4%	107%	89.1%	112%	98.5%	104%	98.4%	107%	107%	93.5%	growth, % of control at 10 µM (HL-60(TB)): 70%; growth, % of control at 10 µM (HCT-15): 108%; growth, % of control at 10 µM (SK-MEL-5): 112%
[3H]N1C(=O)[C@@]2(c3ccccc31)N(C)C[C@@H](c1ccc(Cl)cc1)[C@@]21Cc2ccccc2C1=O	89.9%	15.6%	87.7%	74.5%	80%	79.5%	167%	58.5%	73.9%	81.8%	31.4%	84.8%	76.2%	107%	64%	82.9%	80.5%	81.2%	94.7%	62.7%	growth, % of control at 10 µM (HL-60(TB)): 76.7%; growth, % of control at 10 µM (HCT-15): 82.5%; growth, % of control at 10 µM (SK-MEL-5): 112%
[3H]C([3H])([3H])N1C(=O)[C@@]2(c3ccccc31)N(C)C[C@@H](c1ccc(Cl)cc1)[C@@]21Cc2ccccc2C1=O	89.9%	8.5%	93.1%	72.5%	71.8%	86.5%	51.4%	39.5%	77.3%	75.8%	65%	70.5%	67.8%	90.5%	79.4%	76.6%	82.8%	68.7%	67.1%	66.1%	growth, % of control at 10 µM (HCT-15): 68.3%; growth, % of control at 10 µM (SK-MEL-5): 87%
